Reference: patent US20030040485A1, “alpha/beta-adrenoceptors blockers and angiotensin converting enzyme inhibitors derived from hydroxyphenyl carboxylic acid and alcohol” (priority 2001, published 2003)

How the values were obtained:
[1] = target: β1-adrenoceptor (left atrium) (Rattus norvegicus, UniProt P18090); assay: β1-adrenoceptor antagonism, left atrium, pA2; conditions: Schild plot, mean ± SEM of six to eight experiments
[2] = tested on: β2-adrenoceptor (trachea); assay: β2-adrenoceptor antagonism, trachea, pA2; set-up: species or system rat; conditions: Schild plot, mean ± SEM of six to eight experiments
Procedure: When the spontaneously beating rate of right atria reached a certain stability, cumulative administration of L-isoproterenol from 1×10^−10˜3×10^−10 M caused the heart rate to increase continuously, and a cumulative dose-response curve was obtained. Then the L-isoproterenol was thoroughly washed off with Kreb's solution to recover the right atria's heart rate stability. After the equilibrum was reached again for at least 60 minutes, different concentrations (10^−7, 10^−6, 10^−5 M) of compounds were added. 30 minutes later, cumulative administration of L-isoproterenol from 1×10^−10˜3×10^−10 M were carried out again, and another new cumulative dose-response curve was obtained. Administration of L-isoproterenol started from concentration 1×10^−10 M, and the concentration was raised 0.5 log each time for a total of six times. Cumulative administration interval was when the previous concentration reached its greatest effect, the next concentration would be immediately given. […] In other groups of rats, after separate administration of test compounds, their pA2 values were obtained.
pA2=−Log KB Log(DRADJ−1)=n log[B]−LogKB

[3] = target: T1, angiotensin converting enzyme (ACE) (Rattus norvegicus, UniProt P47820); assay: ACE activity value on tissue (rat lung membrane, Hip-His-Leu, fluorometric); format: biochemical; conditions: mean of three samples
T1 construct: Centrifuged 250-300 mg lung tissue; from tissue; host or cells: rat lung membrane fraction
T1 sequence (P47820 36-1313): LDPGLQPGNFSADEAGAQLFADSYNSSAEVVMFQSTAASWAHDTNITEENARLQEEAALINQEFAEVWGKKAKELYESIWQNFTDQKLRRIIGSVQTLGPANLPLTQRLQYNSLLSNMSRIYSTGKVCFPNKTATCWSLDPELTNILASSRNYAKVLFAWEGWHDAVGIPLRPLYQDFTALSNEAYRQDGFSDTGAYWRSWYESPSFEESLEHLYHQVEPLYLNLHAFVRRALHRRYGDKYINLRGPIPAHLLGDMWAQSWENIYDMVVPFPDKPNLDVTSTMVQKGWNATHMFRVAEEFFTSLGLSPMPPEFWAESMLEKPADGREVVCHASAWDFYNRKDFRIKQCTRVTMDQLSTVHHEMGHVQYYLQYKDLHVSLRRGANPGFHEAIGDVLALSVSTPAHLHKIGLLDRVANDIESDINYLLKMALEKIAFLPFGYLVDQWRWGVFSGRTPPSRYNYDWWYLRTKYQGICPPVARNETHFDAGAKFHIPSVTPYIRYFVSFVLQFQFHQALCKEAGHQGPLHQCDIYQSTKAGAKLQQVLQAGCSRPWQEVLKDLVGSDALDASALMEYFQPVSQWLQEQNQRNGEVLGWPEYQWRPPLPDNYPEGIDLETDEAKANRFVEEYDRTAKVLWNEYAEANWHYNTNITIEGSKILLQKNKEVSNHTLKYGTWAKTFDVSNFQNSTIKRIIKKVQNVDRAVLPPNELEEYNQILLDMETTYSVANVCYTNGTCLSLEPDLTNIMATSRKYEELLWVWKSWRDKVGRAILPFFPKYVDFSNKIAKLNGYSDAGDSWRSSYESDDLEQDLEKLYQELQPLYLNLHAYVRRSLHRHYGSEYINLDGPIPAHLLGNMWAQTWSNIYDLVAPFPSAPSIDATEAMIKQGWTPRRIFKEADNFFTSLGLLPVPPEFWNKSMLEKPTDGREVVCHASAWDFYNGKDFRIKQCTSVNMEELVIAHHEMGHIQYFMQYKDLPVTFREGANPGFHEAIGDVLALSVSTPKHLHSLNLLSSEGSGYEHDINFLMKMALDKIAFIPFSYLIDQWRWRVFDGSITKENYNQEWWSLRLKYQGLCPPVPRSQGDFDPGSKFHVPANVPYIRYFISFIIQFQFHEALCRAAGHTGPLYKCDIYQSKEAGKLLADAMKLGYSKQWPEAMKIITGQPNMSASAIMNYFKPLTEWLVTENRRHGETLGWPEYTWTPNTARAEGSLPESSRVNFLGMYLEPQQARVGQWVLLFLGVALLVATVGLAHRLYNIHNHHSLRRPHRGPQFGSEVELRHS
Procedure: Centrifuged 250-300 mg lung tissue, 3 ml extracted liquid (10 mmol/L HEPES, 125 mmol/L NaCl, pH7.4) under 12000 g for 20 minutes at 4° C. by Teflon-glass homogenizer, the cell membrane was obtained. The 3 ml homogenized liquid was added into twice, before and after centrifuged. Then the Lowry's method was adopted to determine the protein content in the membrane. Mixing 15 minute of liquid and 30 mmol/L Hip-His-Leu solution at 37° C. Fluorometric was used to determine the Hippurate content. test compounds (10^−8M, 10^−7M, 10^−6M) dissolved in PBS normal saline and used as control group. Then ACE activity inhibition rate was determined.

β1-adrenoceptor (left atrium), sequence (P18090 whole entry): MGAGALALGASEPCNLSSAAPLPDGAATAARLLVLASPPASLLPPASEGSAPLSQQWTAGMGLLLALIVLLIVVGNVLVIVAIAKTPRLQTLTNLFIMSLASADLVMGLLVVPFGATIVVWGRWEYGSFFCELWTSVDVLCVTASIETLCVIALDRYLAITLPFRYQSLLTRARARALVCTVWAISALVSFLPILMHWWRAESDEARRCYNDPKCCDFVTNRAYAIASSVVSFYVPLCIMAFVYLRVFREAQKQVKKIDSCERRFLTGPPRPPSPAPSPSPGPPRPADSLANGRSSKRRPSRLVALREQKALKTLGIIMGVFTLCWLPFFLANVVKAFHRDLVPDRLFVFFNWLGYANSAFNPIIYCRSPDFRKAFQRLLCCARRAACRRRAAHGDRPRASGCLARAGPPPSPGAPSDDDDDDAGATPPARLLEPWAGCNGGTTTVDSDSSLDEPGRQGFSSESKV

| Structure (SMILES) | β1 pA2 value, Left atrium [1] | β2 pA2 value, Trachea [2] | Inhibitory activity of ACE, In Rat lung ([3]; 10^−6M) | Inhibitory activity of ACE, In Rat lung ([3]; 10^−7M) | Inhibitory activity of ACE, In Rat lung ([3]; 10^−8M) |
| --- | --- | --- | --- | --- | --- |
| CCOC(=O)C(CCc1ccc(OCC(O)CNCCOc2ccccc2OC)cc1)NC(C)C(=O)N1CCCC1C(=O)O (mixture of isomers) [compound 6, Labetapril] | 5.31 | 5.43 | 84% | 72% | 33% |
| CCOC(=O)C(CCc1ccccc1)NC(C)C(=O)N1CCCC1C(=O)OCc1ccc(OCC(O)CNC(C)(C)C)c(OC)c1 (stereo not shown) [compound 7, Vanynolpril] | 5.78 | 5.64 | 81% | 68% | 31% |
